According to US6313173A, “Glyoxylic acid amides” (Bayer Aktiengesellschaft, priority 1996, dated 2001):

Columns and labels:
[1] = system: Phytophthora infestans; type: in vivo; conditions: tomato, protective; application rate of 50 g/ha; 3 days after the inoculation
[2] = logP determined by HPLC
[3] = hplc
[4] = physchem; conditions: hplc
[5] = system: Plasmopara viticola; experiment: Plasmopara Test (Grapevine)/protective; type: in vivo; conditions: protective, application rate of 50 g/ha, 6 days after the inoculation
[6] = E/Z mixture, second of two values (Z position)

Row | Compound | efficacy [1] [%] | chromatographic logP ([2]; E/Z mixture, (E position)) | chromatographic logP [2, 6] | chromatographic logP [4] | chromatographic logP ([2]; single value (single isomer)) | further results
1 | CCOc1ccc(CC(C)NC(=O)C(=NOC)c2ccc3c(c2)CCCC3)cc1OC (stereo not shown) [Example 1, N-[2-(4-ethoxy-3-methoxyphenyl)-1-methylethyl]-2-methoxyimino-2-(5,6,7,8-tetrahydronaphthalin-2-yl)-acetic acid amide] | ≥ 86 | 3.72 | 4.04 |  |  | 
2 | CCOc1ccc(CC(C)NC(=O)C(=NOC)c2ccc(Br)cc2)cc1OC (stereo not shown) [Example 2] |  |  |  | 3.34 |  | logP [3]: 3.64
3 | CCOc1ccc(CC(C)NC(=O)C(=NOC)c2ccc3c(c2)CCC3)cc1OC (stereo not shown) [Example 3] |  | 3.13 | 3.44 |  |  | 
4 | CCOc1ccc(CC(C)NC(=O)C(=NOC)c2ccc(Cl)cc2)cc1OC (stereo not shown) [Example 4] |  |  |  | 3.26 |  | logP [3]: 3.56
5 | CCOc1ccc(CC(C)NC(=O)/C(=N\OC)c2ccc(Br)cc2)cc1OC (stereo not shown) [Example 5] |  |  |  | 3.64 |  | 
6 | CCOc1ccc(CC(C)NC(=O)/C(=N/OC)c2ccc(Br)cc2)cc1OC (stereo not shown) [Example 6] | ≥ 86 |  |  | 3.34 |  | efficacy [5]: ≥ 96%
7 | CCOc1ccc(CC(C)NC(=O)/C(=N/OC)c2ccc(Cl)cc2)cc1OC (stereo not shown) [Example 7] | ≥ 86 |  |  | 3.26 |  | efficacy [5]: ≥ 96%
8 | CCON=C(C(=O)NC(C)Cc1ccc(OCC)c(OC)c1)c1ccc2c(c1)CCCC2 (stereo not shown) [Example 8] |  | 4.07 | 4.41 |  |  | 
9 | CCON=C(C(=O)NC(C)Cc1ccc(OCC)c(OC)c1)c1ccc(Br)cc1 (stereo not shown) [Example 9] |  | 3.69 | 4.01 |  |  | 
10 | CCOc1ccc(CC(C)NC(=O)C(=NOC)c2ccc(C)cc2)cc1OC (stereo not shown) [Example 10] |  |  |  | 3.04 |  | logP [3]: 3.34
11 | CCON=C(C(=O)NC(C)Cc1ccc(OCC)c(OC)c1)c1ccc(Cl)cc1 (stereo not shown) [Example 11] | ≥ 86 | 3.59 | 3.91 |  |  | 
12 | CCON=C(C(=O)NC(C)Cc1ccc(OCC)c(OC)c1)c1ccc2c(c1)CCCC2 (stereo not shown) [Example 12] |  |  |  |  | 4.41 | 
13 | CCO/N=C(/C(=O)NC(C)Cc1ccc(OCC)c(OC)c1)c1ccc2c(c1)CCCC2 (stereo not shown) [Example 13] | ≥ 86 |  |  |  | 4.07 | 
14 | CCON=C(C(=O)NC(C)Cc1ccc(OCC)c(OC)c1)c1ccc(C)cc1 (stereo not shown) [Example 14] | ≥ 86 | 3.38 | 3.71 |  |  | efficacy [5]: ≥ 96%
15 | CCON=C(C(=O)NC(C)Cc1ccc(OCC)c(OC)c1)c1ccc(CC)cc1 (stereo not shown) [Example 15] |  | 3.73 | 4.05 |  |  | 
16 | CCON=C(C(=O)NC(C)Cc1ccc(OCC)c(OC)c1)c1ccc2c(c1)CCC2 (stereo not shown) [Example 16] |  | 3.79 | 4.1 |  |  | 
17 | CCO/N=C(\C(=O)NC(C)Cc1ccc(OCC)c(OC)c1)c1ccc2c(c1)CCC2 (stereo not shown) [Example 17] |  |  |  |  | 4.1 | 
18 | CCO/N=C(/C(=O)NC(C)Cc1ccc(OCC)c(OC)c1)c1ccc2c(c1)CCC2 (stereo not shown) [Example 18] |  |  |  |  | 3.79 | 
19 | CCO/N=C(\C(=O)NC(C)Cc1ccc(OCC)c(OC)c1)c1ccc(CC)cc1 (stereo not shown) [Example 19] |  |  |  |  | 4.05 | 
20 | CCO/N=C(/C(=O)NC(C)Cc1ccc(OCC)c(OC)c1)c1ccc(Br)cc1 (stereo not shown) [Example 20] |  |  |  |  | 3.69 | 
